Reference: PMC10714930, “In silico virtual screening for the identification of novel inhibitors against dihydrodipicolinate reductase (DapB) of Mycobacterium tuberculosis, a key enzyme of diaminopimelate pathway” (Microbiology Spectrum, 2023)
Values after ≈ are worked out from the molar mass of the structure shown.

Test system: M. tb.pFICTO-dapB
Assay: microbe, parasite or virus in culture
Type: cell-based, Mycobacterium tuberculosis

Compound: COC(=O)CCCc1nc2ccccc2nc1N=Nc1ccccc1 [Compound B59, 4-(3-Phenylazoquinoxalin-2-yl) butanoic acid methyl ester]
- MIC99 in overexpressing strain relative to wild type (M. tb.pFICTO-dapB vs M. tb H37Rv): 2 x MIC99
- MIC99 (Mycobacterium tuberculosis, 168 h, M. tb.pFICTO-dapB, 7 days, read-out: MIC99 against DapB-overexpressing strain): 40 µg/mL (≈ 120 µM)
